Entries after “also recorded” stand apart in the source; their conditions may differ. Read-outs that look alike come from different tables or passages of the source.
Target: T1, CYP1A2 (Homo sapiens, UniProt P05177)
T1 sequence (P05177 1-516): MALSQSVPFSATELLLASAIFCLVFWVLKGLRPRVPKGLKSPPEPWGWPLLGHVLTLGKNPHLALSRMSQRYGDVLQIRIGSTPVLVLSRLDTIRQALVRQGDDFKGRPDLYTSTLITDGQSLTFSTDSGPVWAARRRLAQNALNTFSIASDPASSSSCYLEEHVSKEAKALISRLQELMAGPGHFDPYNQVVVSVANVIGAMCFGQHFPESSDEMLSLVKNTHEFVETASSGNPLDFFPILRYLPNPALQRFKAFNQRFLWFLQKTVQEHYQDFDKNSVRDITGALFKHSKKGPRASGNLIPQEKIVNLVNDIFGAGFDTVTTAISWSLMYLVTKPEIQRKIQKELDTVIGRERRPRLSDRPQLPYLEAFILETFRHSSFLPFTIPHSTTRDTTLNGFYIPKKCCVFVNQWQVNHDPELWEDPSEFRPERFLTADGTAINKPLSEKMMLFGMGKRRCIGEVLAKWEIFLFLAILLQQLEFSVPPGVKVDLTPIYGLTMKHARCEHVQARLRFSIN
Test: in vitro
Assay type: biochemical

[1] = human, recombinant enzyme, pH 7.4
[2] = human, recombinant human CYP1A2, pH 7.4, probe phenacetin (25 μM), O-deethylation to acetaminophen, 1 μM active ingredient, Rh CYP1A2-mediated phenacetin O-deethylation, test dataset of 202 herb ingredients, read-out: % of Control Indication Activity (Mean)
[3] = recombinant enzyme, pH 7.4, 1 μM active ingredient, Rh CYP1A2-mediated phenacetin O-deethylation, test dataset of 202 herb ingredients, read-out: % of Control Indication Activity (Mean)
[4] = 1 μM active ingredient, Rh CYP1A2-mediated phenacetin O-deethylation, test dataset of 202 herb ingredients
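Note: recombinant CYP1A2 incubated for 1 h at 37 °C, with the reaction started by an NADPH-generating system.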

COc1cc(C(=O)O)ccc1O [Vanillic acid]
activity at 1 h, 1 μM [1]: > 90%

COc1cc(/C=C/C(=O)CC(=O)/C=C/c2ccc(O)c(OC)c2)ccc1O [Curcumin]
activity at 1 h, 1 μM [2]: > 90%

COc1ccc(-c2coc3cc(O)ccc3c2=O)cc1 [Formononetin]
activity at 1 h, 1 μM [2]: > 90%

COc1c(O)cc(O)c2c(=O)cc(-c3ccccc3)oc12 [Wogonin]
activity at 1 h, 1 μM [2]: 74.6%

N#C[C@H](O[C@@H]1O[C@H](CO[C@@H]2O[C@H](CO)[C@@H](O)[C@H](O)[C@H]2O)[C@@H](O)[C@H](O)[C@H]1O)c1ccccc1 [Amygdalin]
activity [3]: > 90%

CC(C)=C1CC[C@@H](C)CC1=O [Pulegone]
activity at 1 h, 1 μM [2]: > 90%

O=C(O)[C@H]1O[C@@H](Oc2cc3oc(-c4ccccc4)cc(=O)c3c(O)c2O)[C@H](O)[C@@H](O)[C@@H]1O [Baicalin]
activity at 1 h, 1 μM [1]: > 90%

O=C(/C=C/c1ccc(O)c(O)c1)O[C@@H]1C[C@](O)(C(=O)O)C[C@@H](O)[C@H]1O [Chlorogenic acid]
activity at 1 h, 1 μM [2]: > 90%

COc1cc2c3c(c1OC)-c1ccccc1C[C@H]3N(C)CC2 [Nuciferine]
activity [3]: 85.5%

COc1ccc(-c2oc3c(CC=C(C)C)c(O[C@@H]4O[C@H](CO)[C@@H](O)[C@H](O)[C@H]4O)cc(O)c3c(=O)c2O)cc1 [Icariside I]
% of Control Indication Activity (Mean) [4]: > 90%

Oc1cc(O)c2c(c1)O[C@H](c1ccc(O)c(O)c1)[C@@H](O)C2 [(+)-Catechin]
% of Control Indication Activity (Mean) [4]: > 90%

COc1cc(C[C@H]2COC(=O)[C@@H]2Cc2ccc(O)c(OC)c2)ccc1O [zhang 284, (−)-Matairesinol]
inhibitory activity to CYP1A2 (10% or greater inhibition at 1 μM) (1 μM test concentration, listed as 284): found to have inhibition of CYP1A2 activity; also recorded: confirmed to have inhibitory activities to CYP1A2 | activity at 1 h, 1 μM (human, recombinant human CYP1A2, pH 7.4, probe phenacetin (25 μM), O-deethylation to acetaminophen, 1 μM test compound, 25 μM phenacetin, average of duplicate determinations, read-out: % of Control Indication Activity): < 90%

C[C@@H]1O[C@@H](OC[C@H]2O[C@@H](Oc3c(-c4ccc(O)c(O)c4)oc4cc(O)cc(O)c4c3=O)[C@H](O)[C@@H](O)[C@@H]2O)[C@H](O)[C@H](O)[C@H]1O [Rutin]
activity at 1 h, 1 μM [1]: > 90%

C[C@@H]1C(=O)O[C@H]2C[C@@]34[C@H]5C[C@@H](C(C)(C)C)[C@]36[C@@H](OC(=O)[C@@H]6O)O[C@@]4(C(=O)O5)[C@]21O [Ginkgolide A]
activity [3]: > 90%

CC1(C)CC[C@]2(C(=O)O)CC[C@]3(C)C(=CC[C@@H]4[C@@]5(C)CC[C@H](O)C(C)(C)[C@@H]5CC[C@]43C)[C@@H]2C1 [Oleanol ic acid]
activity at 1 h, 1 μM [3]: > 90%

O=C1CCC[C@@H]2[C@H]3CCCN4CCC[C@@H](CN12)[C@@H]34 [Matrine]
activity [3]: > 90%

Reference: article PMC3116189, “Novel Natural Inhibitors of CYP1A2 Identified by in Silico and in Vitro Screening” (International Journal of Molecular Sciences, 2011)
